From patent US8932563B2, “Higher loading zinc-containing films” (Colgate-Palmolive Company, priority 2009, dated 2015)

Assay: Zinc uptake from toothpaste onto artificial soft substrate
Type: in vitro ADME
Details: for zinc uptake, ppm: Vitro-Skin incubated 1 hour, 1:2 dilution
Method: Zinc uptake experiments were performed to compare the amount of zinc delivered to an artificial soft substrate using the same level of zinc oxide films in toothpaste with different loadings. The films (Zn30 and Zn50) were incorporated into a MaxFresh Nite toothpaste base. The experiments included comparing:
Certain parameters for testing were kept constant for the experiments. They included:
Vitro-Skin incubated for 1 hour
1:2 dilution of toothpaste to deionized water
Two 5 mL washes of deionized water for 10 seconds
There also was an increase in binding with an increase in film concentration. The zinc uptake method quantifies the amount of zinc delivered to a soft substrate. Vitro-Skin was used as a model substrate because it mimics human skin. […] Also the films act as a delivery vehicle to deposit more zinc onto the substrate than its equivalent in powder form.

[1] = 1.0% film or powder in toothpaste

With [O-2].[Zn+2] [ZnO Powder, Zinc Oxide] the “zinc uptake, μg/cm^2” value (0.15% powder in toothpaste) was 5.7 μg/cm^2, the “zinc uptake, ppm” value (0.15% powder in toothpaste) was 2.05 ppm and the “zinc uptake, μg/cm^2” value [1] was 21.5 μg/cm^2. For the same molecule, the “zinc uptake, ppm” value [1] was 59.7 ppm.
